Source: patent US10722599B2, “Lipid assemblies and uses thereof and some pH and electrostatic modulating lipids to be used in said assemblies” (Yissum Research Development Company of the Hebrew …, priority 2015, dated 2020)
Read-outs that look alike come from different tables or passages of the source.

Experiments:
BALB/c mice = assay: In vivo toxicity, single IV escalating dose; settings: as formulated siRNA, Ampholip1 up to 10 mg/kg, Ampholip2 up to 5 mg/kg, 24 hours and 7 days
Protocol: Each group comprised six (6) males and six (6) females BALB/cOlaHsd mice, where half of each group (3 males and 3 females) were assigned to 24 hours or 7 days termination time points, respectively. Animals were subjected to clinical hematology and biochemistry assessment at 24 hours and 7 days post dosing, followed by gross macroscopic examination. The following parameters were evaluated for toxicity: mortality, clinical signs, body weight, weight gain, hematology and biochemistry tests.

[1] = in vivo, iv, 1 mg/kg
Protocol: (§1) Three animals were injected IV in each group with a dose of 1 mg/kg. Plasma was isolated at serial time points: pre-dosing (time 0), 10 minutes, 30 minutes, 1 hour, 2 hours 4 hours, 6 hours and 24 hours. RNA was extracted from the plasma according to Rosetta Genomics' protocol of miRNA isolation from fluids. qPCR was done for miR-34a, normalized to selected miRNAs: hsa-miR-16-5p, hsa-miR-103a-3p and hsa-miR-23a-3p.

[2] = tested on: orthotopic intraperitoneal tumors of SKOV-3 human ovarian adenocarcinoma cells; settings: mouse, in vivo, ip, 7 mg/kg
Protocol: (§2) In vivo bio-distribution and activity of miR-34a or siRNA formulated with DOPC/Ampholip was evaluated in female nude mice bearing orthotopic intraperitoneal tumors of SKOV-3 human ovarian adenocarcinoma cells.
(§3) This experiment intended to assess the bio-distribution and activity of amphoteric liposomes/miR34a and amphoteric liposomes/miR-34a-SL. To this end, experimental model female nude mice bearing the orthotopic tumors received three series of repeated intraperitoneal (IP) injections (at days 20, 22 and 25) with amphoteric liposomes/miRNA in concentration of 7 mg/kg of miRNA. Twenty-four hours after the last dose the tumors were removed, and RNA extracted.

[3] = tested on: orthotopic intraperitoneal tumors of SKOV-3 human ovarian adenocarcinoma cells; assay: In vivo SKOV model: miR-34a accumulation in tumor (Ampholip 1); settings: IP, 7 mg/kg miRNA, days 20, 22, 25, tumors 24 h after last dose, 'miR-34a-SL' = DOPC/Ampholip1/miR-34a-SL (2M), folate formulation = DOPC/Ampholip1/Folate/miR-34a (1M)
Protocol: as §2, §3

[4] = PK study with formulated miRNA; settings: 71%-14%, from plasma levels at 30 minutes
Protocol: as §1

Compound: CCCCCCCCCCCCC/C=C/[C@@H](O)[C@H](COC(=O)NCCCNCCCCNCCCNC(=O)CCC(=O)O)NC(=O)CCCCCCCCCCCCCCC [Ampholip 2, Carboxy-N-palmitoyl-D-erythro-sphingosyl-1-carbamoyl spermine]
- gross pathological findings (BALB/c mice): no gross pathological findings
- mortality, clinical signs, body weight, weight gain, hematology and biochemistry vs saline-treated groups (BALB/c mice): No significant statistical difference

Compound: miR-34a-SL: hsa-miR-34a conjugated to sphingolipid, SEQ ID NO 1 and 3 (chain 1 UGGCAGUGUCUUAGCUGGUUGU; chain 2 CAAUCAGCAAGUAUACUGCCCU; sphingolipid conjugate, position not given here; listed as Homo sapiens)
- share in circulation at 30 minutes relative to 10 minutes [1]: 14%
- fold enrichment of miR-34a in tumor relative to the negative controls [2]: two
- fold enrichment of miR-34a in tumor relative to the negative controls [3]: 604 fold

Compound: miR-34a: hsa-miR-34a naked (non-conjugated) duplex, SEQ ID NO 1 and 2 (chain 1 UGGCAGUGUCUUAGCUGGUUGU; chain 2 ACAAUCAGCAAGUAUACUGCCC; further chemistry not given here; listed as Homo sapiens)
- plasma stability / bioavailability of miR-34a, in words [1]: rapidly degraded
- estimate of encapsulation [4]: 57%
